In ChEMBL document CHEMBL5523677, “Discovery of ASP6918, a KRAS G12C inhibitor: Synthesis and structure-activity relationships of 1-{2,7-diazaspiro[3.5]non-2-yl}prop-2-en-1-one derivatives as covalent inhibitors with good potency and oral activity for the treatment of solid tumors” (Bioorg Med Chem, 2024):

Tests used:
[1] = Inhibition of ERK phosphorylation in KRAS-G12C mutant positive human NCI-H1373 cells incubated for 2 hrs by ELISA; type: cell-based
[2] = Inhibition of ERK phosphorylation in human A-375 cells harboring wild type KRAS and mutant BRAF incubated for 2 hrs by ELISA; type: cell-based; conditions: A-375, 2 h
NCI-H1373 [3] = assay: Cytotoxicity against KRAS G12C mutant positive human NCI-H1373 cells assessed as inhibition of cell growth incubated for 6 days by Celltiter-Glo 2.0 assay; type: functional, cell-based
[4] = Lipophilicity, LogD of compound in 1-Octanol/PBS at pH 7.4 by LC-MS analysis; type: physicochemical
[5] = Aqueous solubility of compound in Japanese Pharmacopoeia 2nd fluid at pH 6.8 at 130 umol/L incubated for 20 hrs by liquid chromatography; type: physicochemical; conditions: dose 130 µmol/L
[6] = Metabolic stability in mouse liver microsomes assessed as intrinsic clearance at 0.1 to 0.2 micromol/L incubated for 30 mins in presence of NADPH-generating system by LC-MS/MS analysis; type: ADME, Microsome; conditions: dose 0.1-0.2 µmol/L, read-out: CLH
[7] = Inhibition of biotinylated GDP-bound Avi-tagged KRAS G12C mutant (1 to 185 residues)/SOS/GST-tagged c-Raf (unknown origin) complex formation incubated for 1 hr in presence of GTP by fluorescence based analysis; design: species or system Homo sapiens
[8] = Metabolic stability in human liver microsomes assessed as intrinsic clearance at 0.1 to 0.2 micromol/L incubated for 30 mins in presence of NADPH-generating system by LC-MS/MS analysis; type: ADME, Microsome; conditions: dose 0.1-0.2 µmol/L, read-out: CLH
[9] = In vivo inhibition of ERK phosphorylation in male nude mouse xenografted with KRAS G12C mutant positive human NCI-H1373 cells assessed as reduction in pERK level in tumor at 3 mg/kg, sc administered as single dose and measured after 6 hrs relative to control; type: functional
[10] = Drug concentration in plasma of male nude mouse xenografted with KRAS G12C mutant positive human NCI-H1373 cells at 3 mg/kg, sc administered as single dose and measured after 6 hrs; type: ADME, organism-based
[11] = Drug concentration in tumor of male nude mouse xenografted with KRAS G12C mutant positive human NCI-H1373 cells at 3 mg/kg, sc administered as single dose and measured after 6 hrs; type: ADME, organism-based, Neoplasm; conditions: read-out: Ct
[12] = In vivo inhibition of ERK phosphorylation in male nude mouse xenografted with KRAS G12C mutant positive human NCI-H1373 cells assessed as reduction in pERK level in tumor at 20 mg/kg, po administered as single dose and measured after 6 hrs relative to control; type: functional
[13] = In vivo inhibition of ERK phosphorylation in male nude mouse xenografted with KRAS G12C mutant positive human NCI-H1373 cells assessed as reduction in pERK level in tumor at 40 mg/kg, po administered as single dose and measured after 6 hrs relative to control; type: functional
[14] = In vivo inhibition of ERK phosphorylation in male nude mouse xenografted with KRAS G12C mutant positive human NCI-H1373 cells assessed as reduction in pERK level in tumor at 60 mg/kg, po administered as single dose and measured after 6 hrs relative to control; type: functional
[15] = Drug concentration in plasma of male nude mouse xenografted with KRAS G12C mutant positive human NCI-H1373 cells at 20 mg/kg, po administered as single dose and measured after 6 hrs; type: ADME, organism-based
[16] = Drug concentration in plasma of male nude mouse xenografted with KRAS G12C mutant positive human NCI-H1373 cells at 40 mg/kg, po administered as single dose and measured after 6 hrs; type: ADME, organism-based
[17] = Drug concentration in plasma of male nude mouse xenografted with KRAS G12C mutant positive human NCI-H1373 cells at 60 mg/kg, po administered as single dose and measured after 6 hrs; type: ADME, organism-based
[18] = Drug concentration in tumor of male nude mouse xenografted with KRAS G12C mutant positive human NCI-H1373 cells at 20 mg/kg, po administered as single dose and measured after 6 hrs; type: ADME, organism-based, Neoplasm; conditions: read-out: Ct
[19] = Drug concentration in tumor of male nude mouse xenografted with KRAS G12C mutant positive human NCI-H1373 cells at 40 mg/kg, po administered as single dose and measured after 6 hrs; type: ADME, organism-based, Neoplasm; conditions: read-out: Ct
[20] = Drug concentration in tumor of male nude mouse xenografted with KRAS G12C mutant positive human NCI-H1373 cells at 60 mg/kg, po administered as single dose and measured after 6 hrs; type: ADME, organism-based, Neoplasm; conditions: read-out: Ct
NCI-H1373 [21] = assay: Antitumor activity against KRAS G12C mutant positive human NCI-H1373 cells xenografted in male nude mouse assessed as inhibition of tumor growth at 3 mg/kg, sc administered once daily for 13 days and measured on day 14 relative to control; type: functional; conditions: NCI-H1373, 336 h, time 14 day, read-out: TGI
NCI-H1373 [22] = assay: Antitumor activity against KRAS G12C mutant positive human NCI-H1373 cells xenografted in male nude mouse assessed as inhibition of tumor growth at 10 mg/kg, sc administered once daily for 13 days and measured on day 14 relative to control; type: functional; conditions: NCI-H1373, 336 h, time 14 day, read-out: TGI
NCI-H1373 [23] = assay: Antitumor activity against KRAS G12C mutant positive human NCI-H1373 cells xenografted in male nude mouse assessed as tumor regression at 10 mg/kg, sc administered once daily for 13 days and measured on day 14 relative to control; type: functional; conditions: time 14 day
NCI-H1373 [24] = assay: Antitumor activity against KRAS G12C-positive human NCI-H1373 cells xenografted in male nude mouse assessed as inhibition of tumor growth at 10 mg/kg, po administered once daily for 13 days and measured on day 14 relative to control; type: functional; conditions: NCI-H1373, 336 h, time 14 day, read-out: TGI
NCI-H1373 [25] = assay: Antitumor activity against KRAS G12C-positive human NCI-H1373 cells xenografted in male nude mouse assessed as inhibition of tumor growth at 20 mg/kg, po administered once daily for 13 days and measured on day 14 relative to control; type: functional; conditions: NCI-H1373, 336 h, time 14 day, read-out: TGI
NCI-H1373 [26] = assay: Antitumor activity against KRAS G12C-positive human NCI-H1373 cells xenografted in male nude mouse assessed as inhibition of tumor growth at 40 mg/kg, po administered once daily for 13 days and measured on day 14 relative to control; type: functional; conditions: NCI-H1373, 336 h, time 14 day, read-out: TGI
NCI-H1373 [27] = assay: Antitumor activity against KRAS G12C-positive human NCI-H1373 cells xenografted in male nude mouse assessed as inhibition of tumor growth at 60 mg/kg, po administered once daily for 13 days and measured on day 14 relative to control; type: functional; conditions: NCI-H1373, 336 h, time 14 day, read-out: TGI
NCI-H1373 [28] = assay: Antitumor activity against KRAS G12C-positive human NCI-H1373 cells xenografted in male nude mouse assessed as tumor regression at 40 mg/kg, po administered once daily for 13 days and measured on day 14 relative to control; type: functional; conditions: time 14 day
NCI-H1373 [29] = assay: Antitumor activity against KRAS G12C-positive human NCI-H1373 cells xenografted in male nude mouse assessed as tumor regression at 60 mg/kg, po administered once daily for 13 days and measured on day 14 relative to control; type: functional; conditions: time 14 day
[30] = Toxicity in male nude mouse xenografted with KRAS G12C-positive human NCI-H1373 cells assessed as reduction in body weight at 10 to 60 mg/kg, po administered once daily for 13 days; type: organism-based; conditions: in vivo, 312 h, dose 10-60 mg/kg, time 13 day

C=CC(=O)N1CC2(CCN(c3nc(OC4CCN(C)CC4)nc4c(OC)c(-c5c(C)ccc6[nH]ncc56)c(C=C)cc34)CC2)C1
IC50 ([1]; Homo sapiens, NCI-H1373, 2 h): 39 nM
IC50 [2]: > 10000 nM
IC50 (NCI-H1373 [3]; Homo sapiens, NCI-H1373, 144 h): 52 nM
logD [4]: 3.2

C=CC(=O)N1CC2(CCN(c3nc(OC4CCN(C)CC4)nc4c(Cl)c(-c5c(C)ccc6[nH]ncc56)c(F)cc34)CC2)C1
IC50 ([1]; Homo sapiens, NCI-H1373, 2 h): 96 nM
IC50 [2]: > 10000 nM
IC50 (NCI-H1373 [3]; Homo sapiens, NCI-H1373, 144 h): 100 nM
solubility at 20 h, 130 µM [5]: > 100 µM
CLint scaled [6]: 115 mL/min/kg
logD [4]: 3.3

C=CC(=O)N1CC2(CCN(c3nc(OC4CCN(CC)CC4)nc4c(OC)c(-c5c(C)ccc6[nH]ncc56)c(Cl)cc34)CC2)C1
IC50 [7]: 46 nM
IC50 ([1]; Homo sapiens, NCI-H1373, 2 h): 75 nM

C=CC(=O)N1CC2(CCN(c3nc(OC4CCN(CC)CC4)nc4c(F)c(-c5c(C)ccc6[nH]ncc56)c(CC)cc34)CC2)C1
IC50 [7]: 59 nM
IC50 ([1]; Homo sapiens, NCI-H1373, 2 h): 160 nM

C=CC(=O)N1CC2(CCN(c3nc(OC4CCN(CC)CC4)nc4c(F)c(-c5c(C)ccc6[nH]ncc56)c(-c5ccccc5)cc34)CC2)C1
IC50 [7]: > 1000 nM

C=CC(=O)N1CC2(CCN(c3nc(OC4CCN(CC)CC4)nc4cc(-c5c(C)ccc6[nH]ncc56)c(Cl)cc34)CC2)C1
IC50 [7]: 250 nM

C=CC(=O)N1CC2(CCN(c3nc(OC4CCN(C)CC4)nc4c(OCC)c(-c5c(C)ccc6[nH]ncc56)c(C=C)cc34)CC2)C1
IC50 ([1]; Homo sapiens, NCI-H1373, 2 h): 5 nM
IC50 ([1]; nci-h1373): 4 nM
IC50 [2]: > 10000 nM
IC50 (NCI-H1373 [3]; Homo sapiens, NCI-H1373, 144 h): 8 nM
IC50 (NCI-H1373 [3]; nci-h1373): 6 nM
solubility at 20 h, 130 µM [5]: > 100 µM
CLint scaled [6]: 119 mL/min/kg
logD [4]: 3.7
CLint scaled [8]: 130 mL/min/kg
inhibition in vivo at 3 mg/kg [9]: 72%
concentration at 6 h [10]: 280 nM
concentration at 6 h [11]: 170 nM
inhibition in vivo at 20 mg/kg [12]: 38%
inhibition in vivo at 40 mg/kg [13]: 72%
inhibition in vivo at 60 mg/kg [14]: 80%
concentration at 6 h [15]: 21 nM
concentration at 6 h [16]: 120 nM
concentration at 6 h [17]: 110 nM
concentration at 6 h [18]: 7 nM
concentration at 6 h [19]: 50 nM
concentration at 6 h [20]: 81 nM
inhibition in vivo at 3 mg/kg (NCI-H1373 [21]): 82%
inhibition in vivo at 10 mg/kg (NCI-H1373 [22]): > 100%
Activity (NCI-H1373 [23]): 73%
inhibition in vivo at 10 mg/kg (NCI-H1373 [24]): 27%
inhibition in vivo at 20 mg/kg (NCI-H1373 [25]): 68%
inhibition in vivo at 40 mg/kg (NCI-H1373 [26]): > 100%
inhibition in vivo at 60 mg/kg (NCI-H1373 [27]): > 100%
Activity (NCI-H1373 [28]): 49%
Activity (NCI-H1373 [29]): 73%
Activity [30]: Non-Toxic

C=CC(=O)N1CC2(CCN(c3nc(OC4CCN(CC)CC4)nc4c(C#N)c(-c5c(C)ccc6[nH]ncc56)c(Cl)cc34)CC2)C1
IC50 [7]: 280 nM

C#Cc1cc2c(N3CCC4(CC3)CN(C(=O)C=C)C4)nc(OC3CCN(CC)CC3)nc2c(F)c1-c1c(C)ccc2[nH]ncc12
IC50 [7]: 56 nM
IC50 ([1]; Homo sapiens, NCI-H1373, 2 h): 120 nM

C=CC(=O)N1CC2(CCN(c3nc(OC4CCN(CC)CC4)nc4c(OC5CC5)c(-c5c(C)ccc6[nH]ncc56)c(Cl)cc34)CC2)C1
IC50 [7]: 56 nM
IC50 ([1]; Homo sapiens, NCI-H1373, 2 h): 35 nM

C=CC(=O)N1CC2(CCN(c3nc(OC4CCN(CC)CC4)nc4c(OCC)c(-c5c(C)ccc6[nH]ncc56)c(Cl)cc34)CC2)C1
IC50 [7]: 50 nM
IC50 ([1]; Homo sapiens, NCI-H1373, 2 h): 49 nM

C=CC(=O)N1CC2(CCN(c3nc(OC4CCN(CC)CC4)nc4c(F)c(-c5c(C)ccc6[nH]ncc56)c(C(=C)C)cc34)CC2)C1
IC50 [7]: 100 nM
IC50 ([1]; Homo sapiens, NCI-H1373, 2 h): 140 nM

C=CC(=O)N1CC2(CCN(c3nc(OC4CCN(CC)CC4)nc4c(OC5CCC5)c(-c5c(C)ccc6[nH]ncc56)c(Cl)cc34)CC2)C1
IC50 [7]: 57 nM
IC50 ([1]; Homo sapiens, NCI-H1373, 2 h): 35 nM

C=CC(=O)N1CC2(CCN(c3nc(OC4CCN(CC)CC4)nc4c(F)c(-c5c(C)ccc6[nH]ncc56)c(C=C)cc34)CC2)C1
IC50 [7]: 41 nM
IC50 ([1]; Homo sapiens, NCI-H1373, 2 h): 37 nM

C=CC(=O)N1CC2(CCN(c3nc(OC4CCN(CC)CC4)nc4c(F)c(-c5c(C)ccc6[nH]ncc56)c(C5CC5)cc34)CC2)C1
IC50 [7]: 51 nM
IC50 ([1]; Homo sapiens, NCI-H1373, 2 h): 31 nM

C=CC(=O)N1CC2(CCN(c3nc(OC4CCN(C)CC4)nc4c(OC5CCC5)c(-c5c(C)ccc6[nH]ncc56)c(C=C)cc34)CC2)C1
IC50 ([1]; Homo sapiens, NCI-H1373, 2 h): 5 nM
IC50 [2]: > 10000 nM
IC50 (NCI-H1373 [3]; Homo sapiens, NCI-H1373, 144 h): 12 nM
solubility at 20 h, 130 µM [5]: > 100 µM
CLint scaled [6]: 342 mL/min/kg
logD [4]: > 4.3
